The record followed here is PMC10610545, “Preclinical Evaluation of an Imidazole-Linked Heterocycle for Alzheimer’s Disease” (Pharmaceutics, 2023).

Series [1] concerns human dopaminergic cell line SH-SY5Y. In words: Cytotoxicity of compounds alone, MTT assay, SH-SY5Y. Type of series: cell-based. The following applies: 24 h, escalating concentrations. As for the experimental part: (§1) In the study of neurotoxicity associated with AD, the HT22 mouse hippocampal neuronal cell line has been recognized as an effective cell model. HT22 cells were purchased from Merck-Sigma-Aldrich (SCC12, Madrid, Spain) and cultured in DMEM-F12 (Gibco, Fisher Scientific, Madrid, Spain) supplemented with foetal bovine serum (FBS, 10%) and 1% penicillin/streptomycin under standard conditions (37 °C, 5% CO2). The human dopaminergic cell line SH-SY5Y, in turn, has been widely used as an in vitro model to study the pathogenesis of PD associated with dopaminergic degeneration. Cells, acquired from the American Type Culture Collection (ATCC, Rockville, MD, USA, Ref.CRL-2266), were grown in RPMI medium (Gibco) supplemented with glutamine (2 mM), 10% FBS, and 1% penicillin/streptomycin under standard conditions. Semiconfluent cells (90%) were seeded on 96-well plates at 3 × 10^4 per well and incubated for 24 h before treatment.
(§2) Neuronal cultures, HT-22 and SH-SY5Y, seeded on 96-well plates were treated with LSL33, LSL34, and LSL60101 for 24 h, and viability was assessed using the MTT assay. […] Then, cultures were treated for 1h with LSL33 at 2 μM and LSL34 and LSL60101 at 1 μM. This dose was chosen based on previous studies. Subsequently, HT-22 cultures were exposed to glutamate (10 mM, Merck-Sigma), while SH-SY5Y cultures received 6-hydroxydopamine (6-OHDA, 35 μM, Merck-Sigma). The cells were then incubated for a minimum of 16 h. Finally, the cellular viability and nitrite production of the cultures were assessed.
(§3) The assessment of cell viability was conducted using the 3-(4,5-dimethylthiazol-2-yl)-5-(3-carboxymethoxyphenyl)-2-(4-sulfophenyl)-2H-tetrazolium (MTT) assay, following the instructions provided by the manufacturer (Roche Diagnostic, Darmstadt, Germany). […] The absorbance of the solution was measured at 595–650 nm using a spectrophotometer. The experiments were performed at least three times, and the results were expressed as a percentage of the control. […]

The subject of series [2] is glial cells: BV2 (microglia), C6 (astroglia), primary microglial and astroglial cultures. In words: LPS-induced nitrite production in glial cultures (Griess). Type of series: cell-based, mouse, rat. The following applies: LPS 10 μg/mL, 24 h, ligands at 1 μM. As for the experimental part: PD has been described in the same way. Therefore, we based our in vitro model of neuroinflammation on the use of two established glial cell lines, C6 and BV2, as well as primary glial cultures derived from the mouse cerebral cortex. […] When attaining semiconfluence, glial cells were seeded on 96-well plates at 3 × 10^4/well and incubated for 24 h before treatment. Primary astrocytes and microglia were obtained and cultured following a previously described protocol. In brief, the cerebral cortex was dissected, dissociated, and incubated with 0.25% trypsin and EDTA at 37 °C for 1 h. The tissue was then centrifuged, and the resulting pellet was washed with Hanks’ balanced salt solution (Invitrogen). The cells were plated on non-coated flasks and incubated under standard conditions for a minimum of 7 days. Subsequently, each type of glial cell was isolated to obtain pure cultures. To achieve this, the glial cells in the culture flasks were agitated on an orbital shaker for 4 h at 240 rpm and 37 °C. […]
To determine the inflammatory state, glial cells subcultured in 96-well plates were exposed to lipopolysaccharide (LPS, 10 μg/mL, Sigma). […] After 24 h in culture, nitrite production was evaluated.
Following the designated treatments, 100 μL of the cell culture supernatant was mixed with an equal volume of Griess reagent (consisting of 1% sulfanylamide and 0.1% naphthyl ethylene diamine in 5% phosphoric acid, sourced from Sigma-Aldrich, Madrid, Spain) at room temperature for 15 min. […] The absorbance of the mixture was measured at 492/540 nm using a microplate reader from Thermofisher (Madrid, Spain). […]
Figure 5 Role of I2-IR ligands in an in vitro model of neuroinflammation. Nitrite production in the supernatant of glial cells was assessed using the Griess reaction after a 24 h exposure to lipopolysaccharide (LPS, 10 μg/mL) in the presence of the indicated I2-IR ligands at a concentration of 1 μM. […]
A general note: Nitrite, measured by Griess reagent, commonly stands in for NO production.

For series [3], the system named is HT-22 mouse hippocampal neuronal cell line. In words: Cytotoxicity of compounds alone, MTT assay, HT-22. Type of series: cell-based. The following applies: HT-22, 24 h, escalating concentrations. The procedure: as §1, §2, §3
On the technique in general: Tetrazolium assays rely on reduction of a dye to a coloured formazan, in cell work by metabolically active cells.

In another series the test system is HT-22 hippocampal cells. In words: Glutamate-induced damage in HT-22 cells (MTT viability, Griess nitrite). The class given is cell-based, mouse. The following applies: HT-22, 10 mM glutamate; for neuroprotection (cell viability, MTT): 1 h pretreatment, LSL33 2 μM, LSL34 and LSL60101 1 μM; for nitrite production: culture supernatant. As for the experimental part: as §1, §2
The assessment of cell viability was conducted using the 3-(4,5-dimethylthiazol-2-yl)-5-(3-carboxymethoxyphenyl)-2-(4-sulfophenyl)-2H-tetrazolium (MTT) assay, following the instructions provided by the manufacturer (Roche Diagnostic, Darmstadt, Germany). Briefly, after exposure to glutamate or 6-OHDA, the cell culture medium was replaced with 100 μL of fresh culture medium containing MTT solution (0.5 mg/mL) and incubated for 1 h. The medium was then removed, and the resulting formazan crystals were dissolved in dimethylsulfoxide (DMSO, Merck-Sigma). The absorbance of the solution was measured at 595–650 nm using a spectrophotometer. The experiments were performed at least three times, and the results were expressed as a percentage of the control.
Following the designated treatments, 100 μL of the cell culture supernatant was mixed with an equal volume of Griess reagent (consisting of 1% sulfanylamide and 0.1% naphthyl ethylene diamine in 5% phosphoric acid, sourced from Sigma-Aldrich, Madrid, Spain) at room temperature for 15 min. To determine the nitrite concentrations, a standard solution of sodium nitrite was employed. The absorbance of the mixture was measured at 492/540 nm using a microplate reader from Thermofisher (Madrid, Spain). The experiments were repeated a minimum of three times.
Figure 4 In vitro screening of I2-IR ligands: Assessment of neuroprotective and anti-inflammatory effects HT-22 cells exposed to 10mM glutamate for at least 16 h Similarly, SH-SY5Y was damaged with 35 μM 6-OHDA (35 μM). Some cultures were pretreated with the I2-IR ligands. Cell viability was evaluated using the MTT assay, and nitrite production in the cell supernatant was quantified using the Griess reaction. The reported values represent the mean ± SD obtained from triplicate determinations repeated at least three times. Statistical analysis was performed: * p ≤ 0.05, ** p ≤ 0.01, *** p ≤ 0.001 (versus glutamate- or 6-OHDA-treated cultures); ^# p ≤ 0.05, ^### p ≤ 0.001 (versus idazoxan-treated cultures); ^& p ≤ 0.1, ^&&& p ≤ 0.001 (versus 2-BFI-treated cultures).

As to `Cl.c1ccc2sc(-c3ncc[nH]3)cc2c1` [LSL33, 2-(Benzo[b]thiophene-2-yl)-1H-imidazole hydrochloride], the “cytotoxicity (MTT viability)” value in series [1] is given as “None of the compounds tested were cytotoxic”. Also, the nitrite levels entry in series [2] is listed as “notable reduction in nitrite levels”. The “cytotoxicity (MTT viability)” value in series [3] is “None of the compounds tested were cytotoxic”. Also, in the series with HT-22 hippocampal cells, the “neuroprotection (cell viability, MTT)” value is “potent neuroprotective effects” and the nitrite production entry was “significant attenuation of the increased nitrite production”.

With `Cl.c1ccc2oc(-n3ccnc3)cc2c1` [LSL34, 1-(Benzofuran-2-yl)-1H-imidazole hydrochloride], the “cytotoxicity (MTT viability)” value in series [1] and in series [3] was “None of the compounds tested were cytotoxic” throughout. Besides, the nitrite levels entry in series [2] was “notable reduction in nitrite levels”. In addition, the “neuroprotection (cell viability, MTT)” value in the series on HT-22 hippocampal cells was “potent neuroprotective effects”. Moreover, in the series with HT-22 hippocampal cells, the nitrite production entry is listed as “significant attenuation of the increased nitrite production”.

In the case of `c1ccc2oc(-c3ncc[nH]3)cc2c1` [LSL60101, reference compound], in series [1], the “cytotoxicity (MTT viability)” value was “None of the compounds tested were cytotoxic”. For the same compound, in series [2], the nitrite levels entry is “notable reduction in nitrite levels”. Moreover, the “cytotoxicity (MTT viability)” value in series [3] is “None of the compounds tested were cytotoxic”. In the series on HT-22 hippocampal cells, the “neuroprotection (cell viability, MTT)” value is recorded as “potent neuroprotective effects” and the nitrite production result was “significant attenuation of the increased nitrite production”.
